Measurements published in patent US20260356849A1, “COMPOUNDS AND METHODS FOR TREATING CANCERS” (CEDARS-SINAI MEDICAL CENTER, priority 2022, published 2026).
“Also recorded” adds a separate entry of the source.

Experiments:
[1] = molecular target: GIT1-GFP (Homo sapiens, UniProt Q9Y2X7); assay: MST binding to GIT1-GFP
[2] = molecular target: GIT2-GFP (Homo sapiens, UniProt Q14161); assay: MST binding to GIT2-GFP
[3] = test system: malignant (HepG2, MzChA-1, HT-29, RKO) cells; assay: EdU/MTT growth assay in cancer cells; type: cell-based
Method: The inventors identified nine inhibitors and perfomed an EdU assay after treating non-malignant (HEK293, AML12) and malignant (HepG2, MzChA-1, HT-29, RKO) cells with varying concentrations of GIT1 inhibitor for 24 hours (results are mean±SE from 3 independent experiments done in duplicates, *p<0.05 vs. DMSO). An MTT assay was also performed after treating primary human and mouse hepatocytes and liver and colon cancer cells with varying concentrations of GIT1 inhibitor for 24 hours (results are mean±SE from 3 independent experiments done in duplicates, *p<0.05 vs. DMSO). […] Percoll may be used to remove dead human hepatocytes.

[4] = test system: HepG2 cells; assay: Cell cycle flow cytometry HepG2; type: cell-based; conditions: 1-5 μM, 24 hours
[5] = test system: AML12 cells; assay: Cell cycle flow cytometry AML12; type: cell-based; conditions: 1-5 μM, 24 hours
[6] = test system: HEK293 cells; assay: Cell cycle flow cytometry HEK293; type: cell-based; conditions: 1-5 μM, 24 hours
[7] = test system: human hepatocytes; assay: Annexin V-FITC/propidium iodide assay human hepatocytes; type: cell-based; conditions: 5 μM, 24-48 hours
Method: (§1) FIG. 8 depicts, in accordance with various embodiments of the invention, results of an annexin V-FITC/propidium iodide binding assay performed in human and mouse hepatocytes, AML12, HEK293, HepG2, and RKO cells after treatment with 5 μM of a GIT1 inhibitor or DMSO for 24-48 hours (results are shown as mean±SE from at least 3 experiments. *p<0.05 vs. DMSO).
(§2) An annexin V-FITC/propidium iodide (PI) binding assay was performed with flow cytometry. […] Both G2/M arrest and cell death are mechanisms by which compound C3 inhibits cancer cells' growth.

[8] = test system: mouse hepatocytes; assay: Annexin V-FITC/propidium iodide assay mouse hepatocytes; type: cell-based; conditions: 5 μM, 24-48 hours
Method: as §1, §2

[9] = test system: AML12 cells; assay: Annexin V-FITC/propidium iodide assay AML12; type: cell-based; conditions: 5 μM, 24-48 hours
Method: as §1, §2

[10] = test system: RKO cells; assay: Clonogenic assay RKO; type: cell-based, human; conditions: 1 μM, 24 hours then drug free medium 10-20 days; dose dependent
Method: (§3) RKO, HepG2, and AML12 cells were treated with 1-10 μM compound C3 for 24 hours and maintained in drug free medium for 10-20 days.

[11] = test system: HepG2 cells; assay: Clonogenic assay HepG2; type: cell-based; conditions: 1 μM, 24 hours then drug free medium 10-20 days; dose dependent
Method: as §3

[12] = test system: AML12 cells; assay: Clonogenic assay AML12; type: cell-based; conditions: 1-10 μM, 24 hours then drug free medium 10-20 days
Method: as §3

[13] = molecular target: GIT1-MAT2B (Homo sapiens, UniProt Q9Y2X7); assay: Co-IP MAT2B-GIT1 interaction in HepG2 cells; type: cell-based; conditions: HepG2, 10 μM, 24 hours
Sequence of GIT1-MAT2B (Q9Y2X7 whole entry): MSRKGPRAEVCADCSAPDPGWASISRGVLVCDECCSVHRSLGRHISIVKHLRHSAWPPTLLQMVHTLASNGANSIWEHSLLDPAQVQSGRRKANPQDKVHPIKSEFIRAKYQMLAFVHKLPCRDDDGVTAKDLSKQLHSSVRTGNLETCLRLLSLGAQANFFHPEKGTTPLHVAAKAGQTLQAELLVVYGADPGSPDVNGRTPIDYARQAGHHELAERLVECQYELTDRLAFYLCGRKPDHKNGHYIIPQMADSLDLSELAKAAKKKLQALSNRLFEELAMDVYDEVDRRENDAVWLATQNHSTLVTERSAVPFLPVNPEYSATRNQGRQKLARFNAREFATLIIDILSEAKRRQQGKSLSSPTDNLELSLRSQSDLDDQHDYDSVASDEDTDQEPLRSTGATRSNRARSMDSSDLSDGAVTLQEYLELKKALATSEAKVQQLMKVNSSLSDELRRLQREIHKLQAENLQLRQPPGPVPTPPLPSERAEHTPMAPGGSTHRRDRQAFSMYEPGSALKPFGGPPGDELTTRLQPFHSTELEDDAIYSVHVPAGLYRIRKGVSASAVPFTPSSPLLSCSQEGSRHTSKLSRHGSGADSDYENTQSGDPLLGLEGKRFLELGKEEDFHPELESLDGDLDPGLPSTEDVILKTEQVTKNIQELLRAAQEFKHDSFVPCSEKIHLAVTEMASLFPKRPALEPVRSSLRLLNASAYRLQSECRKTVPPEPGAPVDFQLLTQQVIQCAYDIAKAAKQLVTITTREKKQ
From the text: GIT1-MAT2B scaffold complex sequesters and activates RAS/RAF/MEK/ERK signaling.

[14] = test system: MEK and ERK activity; assay: Western blot ERK and MEK activity in HepG2 cells; type: cell-based; conditions: 2-10 μM, 24 hours
Method: Treatment of human hepatocytes with 10 μM compound C3 had no effect on MEK or ERK activity.

[15] = test system: Cyclin D1; assay: Cyclin D1 protein level in cancer cells; type: cell-based; conditions: 10 μM, 24 hours
[16] = test system: cyclin B1/CDK1; assay: Cyclin B1/CDK1 activation; type: cell-based
Method: HepG2 and RKO cells were treated with 5 μM of compound C3 for 24 hours, followed by co-IP with anti-CDK1 antibody and western blots. […] The densitometric changes are from at least 3 independent experiments in mean±SE; *p<0.05 vs. DMSO. Binding of cyclin BI to CDK1 initiates conformational changes allowing CDK1 to alter its phosphorylation status and to become an active kinase.

[17] = molecular target: GIT1-cyclin B1 interaction (Homo sapiens, UniProt Q9Y2X7); assay: Co-IP GIT1-cyclin B1 interaction in HepG2; type: cell-based; conditions: HepG2, 10 μM, 24 h
Sequence of GIT1-cyclin B1 interaction (Q9Y2X7 whole entry): as above
Method: HepG2 cells were treated with compound C3 at 10 μM for 24 h and subjected to co-IP with anti-GIT1 or anti-cyclin B1 and blotted for cyclin B1 and GIT1, ratios of cyclin B1 bound to GIT1 vs. DMSO control are shown, *p<0.05 vs. DMSO from n=3 (FIG. 38B).
In vitro translated GIT1, recombinant MAT2B, and cyclin B1 (both 0.5 μg) were used to evaluate their direct binding, as shown in the blots of FIG. 18A. Also shown, is the results of (FIG. 18B) treating HepG2 cells with a GIT1 inhibitor at 10 μM for 24 hours and subjected to co-IP with anti-GIT1 or cyclin B1 antibody and immunoblotted for cyclin BI and GIT1. In vitro translated GIT1, recombinant MAT2B, and cyclin B1 (both 0.5 μg) were used to evaluate their direct binding. The ratio of cyclin BI bound to GIT1 was compared to DMSO control.

[18] = test system: GIT1; assay: GIT1 dependence of cyclin B1 and EdU effects; type: cell-based
[19] = test system: MC38 cells; assay: Syngeneic subcutaneous MC38 mouse model; type: in vivo, C57/BL6 mouse
Method: MC38 cells were injected subcutaneously in both flanks. Compound C3 and DMSO were injected intratumorally every other day at 100 μM (5×IC50) starting at day 7 when the tumors averaged 0.5 cm in diameter. Tumor size was measured by caliper, with the tumor volume calculated according to the formula: (π/6)*(length*width*height). Each mouse received compound C3 injection in tumors on one flank and DMSO in the contralateral tumor. Animals were sacrificed on day 13.

[20] = test system: M2 macrophages (CD206+); assay: Flow cytometry of macrophages in CRLM tumors; type: in vivo, mice
From the text: Liver tumors from CRLM model in syngeneic mice were processed for flow cytometry. […] In this subgroup, CD206+ was used to identify M2 macrophages.

[21] = 100 μM intratumorally every other day
[22] = 100 μM intratumorally, western blot

Sequence of GIT1-GFP (Q9Y2X7 1-770 isoform Q9Y2X7-3): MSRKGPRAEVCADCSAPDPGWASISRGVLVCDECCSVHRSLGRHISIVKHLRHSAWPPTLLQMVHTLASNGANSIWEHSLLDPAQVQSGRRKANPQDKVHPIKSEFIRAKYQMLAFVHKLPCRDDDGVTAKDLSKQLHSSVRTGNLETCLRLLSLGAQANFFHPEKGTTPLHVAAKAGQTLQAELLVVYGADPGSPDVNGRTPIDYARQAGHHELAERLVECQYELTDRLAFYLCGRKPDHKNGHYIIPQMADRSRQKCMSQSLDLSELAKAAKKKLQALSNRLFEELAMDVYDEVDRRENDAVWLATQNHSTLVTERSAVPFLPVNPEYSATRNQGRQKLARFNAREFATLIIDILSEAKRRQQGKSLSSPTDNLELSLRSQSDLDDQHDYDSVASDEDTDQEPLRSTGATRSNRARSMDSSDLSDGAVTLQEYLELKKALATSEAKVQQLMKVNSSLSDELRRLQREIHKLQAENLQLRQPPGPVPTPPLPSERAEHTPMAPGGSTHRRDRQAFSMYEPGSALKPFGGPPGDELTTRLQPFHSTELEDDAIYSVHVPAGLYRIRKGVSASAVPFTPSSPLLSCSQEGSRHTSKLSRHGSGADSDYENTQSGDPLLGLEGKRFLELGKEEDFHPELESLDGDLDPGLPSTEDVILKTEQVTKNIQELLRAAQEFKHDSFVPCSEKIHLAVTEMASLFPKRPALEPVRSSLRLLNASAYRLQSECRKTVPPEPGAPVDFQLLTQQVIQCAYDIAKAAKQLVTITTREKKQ
Sequence of GIT2-GFP (Q14161 whole entry): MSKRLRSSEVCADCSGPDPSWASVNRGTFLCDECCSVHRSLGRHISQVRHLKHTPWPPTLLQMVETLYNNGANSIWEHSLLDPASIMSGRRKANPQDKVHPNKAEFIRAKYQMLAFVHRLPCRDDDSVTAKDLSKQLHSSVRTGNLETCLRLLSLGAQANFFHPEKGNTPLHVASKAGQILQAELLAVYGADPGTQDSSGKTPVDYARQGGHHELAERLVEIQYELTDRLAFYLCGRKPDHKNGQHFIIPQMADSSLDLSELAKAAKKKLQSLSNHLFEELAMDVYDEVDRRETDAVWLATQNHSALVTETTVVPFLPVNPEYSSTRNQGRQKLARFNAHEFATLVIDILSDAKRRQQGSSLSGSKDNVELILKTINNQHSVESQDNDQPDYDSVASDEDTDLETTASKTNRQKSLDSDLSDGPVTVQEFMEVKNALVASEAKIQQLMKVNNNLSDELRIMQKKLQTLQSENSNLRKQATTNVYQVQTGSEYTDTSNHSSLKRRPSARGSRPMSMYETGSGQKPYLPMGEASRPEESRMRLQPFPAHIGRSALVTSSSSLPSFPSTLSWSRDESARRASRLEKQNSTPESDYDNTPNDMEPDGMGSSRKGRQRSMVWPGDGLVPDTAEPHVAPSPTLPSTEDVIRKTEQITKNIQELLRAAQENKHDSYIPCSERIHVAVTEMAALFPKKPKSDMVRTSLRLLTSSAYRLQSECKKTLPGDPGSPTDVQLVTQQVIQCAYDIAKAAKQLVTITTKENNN

Q: What does the source list for CC1(C)Cc2nc3sc4c(=O)n(CC(=O)NCc5ccco5)cnc4c3cc2CO1 [Compound C3, 2-(8,8-Dimethyl-4-oxo-7,10-dihydro-8H-pyrano[3″,4″: 5′,6′]pyrido[3′,2′: 4,5]thieno[3,2-d]pyrimidin-3 (4H)-yl)-N-(2-furylmethyl) acetamide]?
A: Kd [1]: 6.2 µM; binding to GIT1-GFP [1]: binds to GIT1-GFP; binding to GIT2-GFP [2]: not GIT2-GFP; apoptosis in cancer cells (FIG. 33) [3]: slight increase in apoptosis; cytotoxicity in cancer cells ([3]; 10 μM, 24 hours): cytotoxic in cancer cells at 10 μM; growth inhibitory effect ([3]; 24 hours, among nine inhibitors): most potent growth inhibitory effect; G2/M phase, HepG2 [4]: G2/M phase was significantly increased; percentage of cells in G1 phase, HepG2 [4]: lowered the percentage of cells in G1 phase; G2/M arrest, AML12 [5]: did not occur; G2/M arrest, HEK293 [6]: did not occur; cell death, human hepatocytes [7]: does not induce cell death; cell death, mouse hepatocytes [8]: does not induce cell death; cell death, AML12 [9]: does not induce cell death; clonogenic potential, RKO [10]: inhibited the clonogenic potential; clonogenic potential, HepG2 [11]: inhibited the clonogenic potential; clonogenic potential, AML12 [12]: no effect on clonogenic potential; GIT1-MAT2B scaffold formation [13]: disrupted GIT1-MAT2B scaffold formation; ERK and MEK activities, HepG2 [14]: lower; Cyclin D1 protein level, cancer cells [15]: lower in cancer cells; cyclin B1/CDK1 activation [16]: activated cyclin B1/CDK1; GIT1-cyclin B1 interaction [17]: promotes their interaction; also recorded: enhances GIT1-cyclin BI interaction; GIT1 dependence of lower EdU (growth) [18]: lower EdU requires GIT1; GIT1 dependence of increase in cyclin B1 level / stabilization ([18]; n=3): GIT1 dependent; also recorded: increase in cyclin BI level requires GIT1; H&E of tumors [19, 21]: spindle MC38 tumor cells turned into small round cells; H&E staining of major organs [19, 21]: no tissue damage or toxicity; PCNA staining in tumors [19, 21]: dramatic effect in reducing its staining; TUNEL assay of tumors [19, 21]: more apoptopic cells; body weights [19, 21]: not significantly different; tumor growth, subcutaneous ([19]; 100 μM intratumorally every other day from day 7, day 13): inhibits colon cancer growth; MEK1/2 activity in tumors [19, 22]: decreased MEK1/2 activity; cyclin D1 level in tumors [19, 22]: less cyclin D1 level; M2 macrophages in the tumors ([20]; CD206+, n=6 each group): dramatically reduced M2 macrophages; M1 and CD8+ T cells in the tumors ([20]; strong indication): raised MI and CD8+ T cells
